According to patent US9561231B2 (AbbVie Inc., priority 2012, dated 2017):
Like-named read-outs stand apart in the source and are kept apart here.

Key:
[1] = target: T1, first (BD1: amino acids K57-E168) bromodomain of BRD4 (Homo sapiens, UniProt O60885); test: TR-FRET bromodomain binding assay, BRD4 BD1; settings: Ki calculated from IC50, probe Kd and probe concentration, read-out: TR-FRET Binding Ki: BRD4 (BDI_K57-E168)
T1 construct: His-tagged first (BD1: amino acids K57-E168)
Summary of the method: (§1)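 Compounds were serially diluted in DMSO, diluted into pH 6.0 phosphate buffer with NaCl, EDTA, Triton X-100 and DTT, then combined with His-tagged bromodomain and an Alexa647-labeled BET-inhibitor probe. TR-FRET was read, percent inhibition fitted to give IC50, and Ki derived using probe Kd.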

[2] = target: T2, second (BD2: amino acids E352-E168) bromodomain of BRD4 (Homo sapiens, UniProt O60885); test: TR-FRET bromodomain binding assay, BRD4 BD2; settings: Ki calculated from IC50, probe Kd and probe concentration, read-out: TR-FRET Binding Ki: BRD4 (BDII_E352-M457)
T2 construct: protocol
Summary of the method: as §1

[3] = tested on: breast cancer cell line MX-1; test: MX-1 cell line proliferation assay (3-day); type: cell-based; settings: Homo sapiens, MX1, MX-1 cells, Cell Titer Glo, read-out: Cellular proliferation: EC50
Summary of the method: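 EC50 derived by sigmoidal fitting of Cell Titer Glo signal relative to DMSO controls. Compound, 3 μM down to 0.0001 μM final in 3-fold steps, was added to adhered MX-1 cells (5000/well, RPMI + 10% FBS) for a 3-day incubation at 37° C.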

[4] = TR-FRET assay protocol (A-G, compound concentration range)
[5] = TR-FRET assay protocol (D, E or G) per compound

Row | Ki [1, 4] | Ki [2, 4] | EC50 ([3]; 72 h incubation) | Ki [1, 5] | Ki [2, 5] | EC50 ([3]; 72 hours with compound) | SMILES
1 | 10.2 nM | 5.44 nM | 126 nM | – | – | – | CCS(=O)(=O)Nc1ccc(Oc2ccc(F)cc2F)c(-c2cn(C)c(=O)cc2-c2cnn(CCN3CCOCC3)c2)c1 [Example 345, N-[4-(2,4-difluorophenoxy)-3-(1-methyl-4-{1-[2-(morpholin-4-yl)ethyl]-1H-pyrazol-4-yl}-6-oxo-1,6-dihydropyridin-3-yl)phenyl]ethanesulfonamide]
2 | 169 nM | 53.4 nM | 1560 nM | – | – | – | CCOc1cc(=O)n(C)cc1-c1cc(NS(=O)(=O)c2ccc(C(C)C)cc2)ccc1Oc1ccc(F)cc1F [Example 347, N-[4-(2,4-difluorophenoxy)-3-(4-ethoxy-1-methyl-6-oxo-1,6-dihydropyridin-3-yl)phenyl]-4-(propan-2-yl)benzenesulfonamide]
3 | 43.8 nM | 8.71 nM | 151 nM | – | – | – | CCCS(=O)(=O)Nc1ccc(Oc2ccc(F)cc2F)c(-c2cn(C)c(=O)cc2OCC)c1 [Example 349, N-[4-(2,4-difluorophenoxy)-3-(4-ethoxy-1-methyl-6-oxo-1,6-dihydropyridin-3-yl)phenyl]propane-1-sulfonamide]
4 | 25.7 nM | 29.8 nM | 360 nM | – | – | – | CCOc1cc(=O)n(C)cc1-c1cc(NS(=O)(=O)Cc2ccccc2F)ccc1Oc1ccc(F)cc1F [Example 351, N-[4-(2,4-difluorophenoxy)-3-(4-ethoxy-1-methyl-6-oxo-1,6-dihydropyridin-3-yl)phenyl]-1-(2-fluorophenyl)methanesulfonamide]
5 | 26.8 nM | 77.9 nM | 256 nM | – | – | – | CCS(=O)(=O)Nc1ccc(Oc2ccc(F)cc2F)c(-c2cc(F)c(=O)n(C)c2)c1 [Example 352, N-[4-(2,4-difluorophenoxy)-3-(5-fluoro-1-methyl-6-oxo-1,6-dihydropyridin-3-yl)phenyl]ethanesulfonamide]
6 | 4.41 nM | 2.3 nM | 56.9 nM | – | – | – | CCS(=O)(=O)Nc1ccc(Oc2ccc(F)cc2F)c(-c2cn(C)c(=O)cc2NCC2CC2)c1 [Example 353, N-[3-{4-[(cyclopropylmethyl)amino]-1-methyl-6-oxo-1,6-dihydropyridin-3-yl}-4-(2,4-difluorophenoxy)phenyl]ethanesulfonamide]
7 | 12.6 nM | 5.1 nM | 112 nM | – | – | – | CCCc1cc(=O)n(C)cc1-c1cc(NS(=O)(=O)CC)ccc1Oc1ccc(F)cc1F [Example 359, N-[4-(2,4-difluorophenoxy)-3-(1-methyl-6-oxo-4-propyl-1,6-dihydropyridin-3-yl)phenyl]ethanesulfonamide]
8 | 5.81 nM | 2.76 nM | 33.6 nM | – | – | – | CCS(=O)(=O)Nc1ccc(Oc2ccc(F)cc2F)c(-c2cn(C)c(=O)cc2NC2CC2)c1 [Example 362, N-{3-[4-(cyclopropylamino)-1-methyl-6-oxo-1,6-dihydropyridin-3-yl]-4-(2,4-difluorophenoxy)phenyl}ethanesulfonamide]
9 | 84.4 nM | 153 nM | 878 nM | – | – | – | CC(C)S(=O)(=O)c1ccc(Oc2ccc(F)cc2F)c(-c2ccc(=O)n(C)c2)c1 [Example 364, 5-[2-(2,4-difluorophenoxy)-5-(propan-2-ylsulfonyl)phenyl]-1-methylpyridin-2(1H)-one]
10 | 52.7 nM | 39.5 nM | 135 nM | – | – | – | CCOc1cc(=O)n(C)cc1-c1cc(CS(C)(=O)=O)ccc1Oc1ccc(F)cc1F [Example 370, 5-{2-(2,4-difluorophenoxy)-5-[(methylsulfonyl)methyl]phenyl}-4-ethoxy-1-methylpyridin-2(1H)-one]
11 | – | – | – | 118 nM | 167 nM | 859 nM | CCOc1cc(=O)n(C)cc1-c1cc(S(=O)(=O)CC)ccc1NC1CC1 [Example 373, 5-[2-(cyclopropylamino)-5-(ethylsulfonyl)phenyl]-4-ethoxy-1-methylpyridin-2(1H)-one]
12 | – | – | – | 123 nM | 17.1 nM | 708 nM | CCS(=O)(=O)Nc1ccc(Oc2ccc(F)cc2F)c(-c2cn(C)c(=O)cc2OCC(C)(C)O)c1 [Example 376, N-{4-(2,4-difluorophenoxy)-3-[4-(2-hydroxy-2-methylpropoxy)-1-methyl-6-oxo-1,6-dihydropyridin-3-yl]phenyl}ethanesulfonamide]
13 | – | – | – | 53.4 nM | 6.41 nM | 92.4 nM | CCOc1cc(=O)n(C)cc1-c1cc(S(=O)(=O)CC)ccc1Oc1ccc(OC(F)(F)F)cc1 [Example 377, 4-ethoxy-5-{5-(ethylsulfonyl)-2-[4-(trifluoromethoxy)phenoxy]phenyl}-1-methylpyridin-2(1H)-one]
14 | – | – | – | 113 nM | 31.7 nM | 103 nM | CCOc1cc(=O)n(C)cc1-c1cc(S(=O)(=O)CC)ccc1Oc1ccc(C#N)cc1 [Example 378, 4-[2-(4-ethoxy-1-methyl-6-oxo-1,6-dihydropyridin-3-yl)-4-(ethylsulfonyl)phenoxy]benzonitrile]
15 | – | – | – | 62.1 nM | 16.1 nM | 126 nM | CCOc1cc(=O)n(C)cc1-c1cc(CS(=O)(=O)CC)ccc1Oc1ccc(F)cc1F [Example 379, 5-{2-(2,4-difluorophenoxy)-5-[(ethylsulfonyl)methyl]phenyl}-4-ethoxy-1-methylpyridin-2(1H)-one]
16 | – | – | – | 14.3 nM | 3.88 nM | 38.4 nM | CCOc1cc(=O)n(C)cc1-c1cc(C(C)(C)S(=O)(=O)CC)ccc1Oc1ccc(F)cc1F [Example 380, 5-{2-(2,4-difluorophenoxy)-5-[2-(ethylsulfonyl)propan-2-yl]phenyl}-4-ethoxy-1-methylpyridin-2(1H)-one]
17 | – | – | – | 33.4 nM | 56.1 nM | 115 nM | CCOc1cc(=O)n(C)cc1-c1cc(NS(=O)(=O)CC)ccc1OCC1CC1 [Example 381, N-[4-(cyclopropylmethoxy)-3-(4-ethoxy-1-methyl-6-oxo-1,6-dihydropyridin-3-yl)phenyl]ethanesulfonamide]
18 | – | – | – | 43.2 nM | 82.8 nM | 83.6 nM | CCOc1cc(=O)n(C)cc1-c1cc(NS(=O)(=O)CC)ccc1OCCC1CC1 [Example 383, N-[4-(2-cyclopropylethoxy)-3-(4-ethoxy-1-methyl-6-oxo-1,6-dihydropyridin-3-yl)phenyl]ethanesulfonamide]
19 | – | – | – | 65.3 nM | 146 nM | 237 nM | CCOc1cc(=O)n(C)cc1-c1cc(NS(=O)(=O)CC)ccc1OC1CCC1 [Example 384, N-[4-(cyclobutyloxy)-3-(4-ethoxy-1-methyl-6-oxo-1,6-dihydropyridin-3-yl)phenyl]ethanesulfonamide]
20 | – | – | – | 55.3 nM | 140 nM | 254 nM | CCOc1cc(=O)n(C)cc1-c1cc(NS(=O)(=O)CC)ccc1OC1CCC(F)(F)CC1 [Example 385, N-{4-[(4,4-difluorocyclohexyl)oxy]-3-(4-ethoxy-1-methyl-6-oxo-1,6-dihydropyridin-3-yl)phenyl}ethanesulfonamide]

Row | SMILES | Ki [1, 4] | Ki [2, 4] | EC50 ([3]; 72 h incubation) | Ki [1, 5] | Ki [2, 5] | EC50 ([3]; 72 hours with compound)
21 | CCS(=O)(=O)Nc1ccc(Oc2ccc(F)cc2F)c(-c2cn(C)c(=O)cc2OCCC(C)(C)O)c1 [Example 372, N-{4-(2,4-difluorophenoxy)-3-[4-(3-hydroxy-3-methylbutoxy)-1-methyl-6-oxo-1,6-dihydropyridin-3-yl]phenyl}ethanesulfonamide] | 33.5 nM | 14.3 nM | 205 nM | – | – | –
